# In EPA's ToxValDB 9.5:
# Where “and” joins values, the source holds several entries; their conditions need not be identical. Identical values can stand only once.
# Key:
# Canidae = conditions: chronic, oral, diet, M/F, Beagle
# [1] = subchronic, duration: 13 weeks, oral, gavage
# [2] = subchronic, duration: 90 days, oral, diet, M/F, Wistar, no effects
# [3] = subchronic, duration: 90 days, no effects
# [4] = subchronic, duration: 90 days, clinical chemistry
smiles,measurement,setting,value
CCCC(C)=O [2-Pentanone],NOAEL,"Rattus norvegicus; subchronic, duration: 13 weeks, oral, gavage, M/F, organ weight",20 mg/kg-day
CSCc1ccccc1 [Benzyl methyl sulfide],NOAEL,"Rattus norvegicus; subchronic, duration: 90 days, oral",0.43 mg/kg-day
"C/C=C/C=C/C(=O)O [2E,4E-Hexadienoic acid]",NOAEL,"Rattus norvegicus; reproduction developmental, oral, gavage, M/F, Crj:CD, body weight",300 mg/kg-day
O=C1CCCCCN1 [Caprolactam],NOEL,"Rattus norvegicus; subchronic, duration: 90 days, oral, diet",750 mg/kg-day
CC1=C(/C=C/C(C)=C/C=C/C(C)=C/C=C/C=C(C)/C=C/C=C(C)/C=C/C2=C(C)C[C@@H](O)CC2(C)C)C(C)(C)C[C@H](O)C1 [Zeaxanthin],NOAEL,"Rattus norvegicus; reproduction developmental, oral, M/F, reproduction",150 mg/kg-day
OCc1c[nH]c2ccccc12 [Indole-3-carbinol],NOAEL,"Rattus norvegicus; chronic, duration: 37 weeks, oral, diet, M, no effects",50 mg/kg-day
CC(=O)SCc1ccco1 [S-Furfuryl thioacetate],NOAEL,"Rattus norvegicus; subchronic, duration: 90 days, oral, gavage, M/F, body weight",3 mg/kg-day
Cc1ccc(OCC(=O)N(Cc2cccs2)c2ccn[nH]2)cc1,NOAEL,"Rattus norvegicus; reproduction developmental, oral, gavage, F, no effects",1000 mg/kg-day
same,NOAEL,"Rattus norvegicus; subchronic, duration: 13 weeks, oral, gavage, M/F, no effects",100 mg/kg-day
CC(=O)N[C@H]1[C@H](O[C@H]2[C@@H](O)[C@@H](CO)O[C@@H](O[C@H]3[C@H](O)[C@@H](O)C(O)O[C@@H]3CO)[C@@H]2O)O[C@H](CO)[C@@H](O)[C@@H]1O[C@@H]1O[C@H](CO)[C@H](O)[C@H](O)[C@H]1O (some centres not stated) [Lacto-N-tetraose],NOAEL,"Rattus norvegicus; subchronic, duration: 90 days, oral, M/F, Wistar",5000 mg/kg-day
CCNC(=O)C1CC(C)CCC1C(C)C (configuration not stated) [N-Ethyl-2-(isopropyl)-5-methylcyclohexanecarboxamide],NOEL,"Rattus norvegicus; short-term, duration: 28 days, oral, gavage, M/F, Crj:CD",8 mg/kg-day
"SCCCCS [1,4-Butanedithiol]",NOAEL,"Rattus norvegicus; subchronic, duration: 90 days, oral, diet, M/F, Sprague-Dawley, no effects",0.703 mg/kg-day (5×) and 0.705 mg/kg-day (5×)
C=CCN=C=S [Allyl isothiocyanate],LOAEL,"Rattus norvegicus; chronic, duration: 103 weeks, oral, gavage, M, histopathology: nonneoplastic",9 mg/kg-day
same,NOAEL,"Rattus norvegicus; chronic, duration: 721 days, oral, gavage, M/F, histopathology: neoplastic",12 mg/kg-day
CCCSSSCCC [Dipropyl trisulfide],NOEL,Rattus norvegicus; [1],4.8 mg/kg-day
CC1=C[C@H](O)CC(C)(C)[C@H]1/C=C/C(C)=C/C=C/C(C)=C/C=C/C=C(C)/C=C/C=C(C)/C=C/C1=C(C)C[C@@H](O)CC1(C)C [Lutein A],LEL,"Rattus norvegicus; subchronic, duration: 13 weeks, oral, no effects",260 mg/kg-day
same,NOAEL,Rattus norvegicus; [2],200 mg/kg-day
COc1ccc(C=CC(=O)NCCc2ccc(OC)c(OC)c2)cc1OC,NOAEL,"Rattus norvegicus; subchronic, duration: 90 days, oral, diet, M/F, Sprague-Dawley, hematological",23 mg/kg-day
"CC(C)(C)c1ccc(OP(Oc2ccc(C(C)(C)C)cc2C(C)(C)C)Oc2ccc(C(C)(C)C)cc2C(C)(C)C)c(C(C)(C)C)c1 [Tris(2,4-di-tert-butylphenyl) phosphite]",NOAEL,"Rattus norvegicus; chronic, duration: 2 years, oral, no effects",58 mg/kg-day
"C=C=CC(C)C(=O)OCC (configuration not stated) [3,4-Pentadienoic acid, 2-methyl-, ethyl ester]",NOAEL,"Rattus norvegicus; chronic, duration: 92 days",1 mg/kg-day
Oc1ccccc1 [Phenol],NOAEL,"Rattus norvegicus; developmental, duration: 10 days, oral, gavage, F, Sprague-Dawley, development",120 mg/kg-day
same,NOAEL,"Rattus norvegicus; reproduction developmental, duration: 10 days, oral, gavage, F, body weight",60 mg/kg-day
CC1OCCC1=O (configuration not stated) [2-Methyltetrahydrofuran-3-one],NOAEL,Rattus norvegicus; [3],91 mg/kg-day
NCCS(=O)(=O)[O-].NCCS(=O)(=O)[O-].[Fe+2] [Iron(II) taurate],NOAEL,"Rattus norvegicus; subchronic, duration: 13 weeks, oral, gavage, M/F, Crj:CD, no effects",1000 mg/kg-day
"O=C(O)c1ccc(C(=O)O)o1 [2,5-Furandicarboxylic acid]",NOAEL,"Rattus norvegicus; subchronic, duration: 90 days, oral, gavage, M/F, Wistar, body weight",300 mg/kg-day
"CSSc1cc(C)oc1C [2,5-Dimethyl-3-(methyldisulfanyl)furan]",NOAEL,Rattus norvegicus; [2],5 mg/kg-day
COC(=O)[C@H](Cc1ccccc1)NC(=O)[C@H](CC(=O)O)NCCC(C)(C)C [Neotame],NOAEL,"Canidae; duration: 52 weeks, clinical chemistry",200 mg/kg-day
"COc1cccc(OC)c1 [1,3-Dimethoxybenzene]",NOAEL,"Rattus norvegicus; subchronic, duration: 90 days, oral, no effects",10 mg/kg-day
C=CO.OCCO,NOAEL,"Canidae; duration: 9 months, no effects",800 mg/kg-day
"Clc1ccc(-c2ccc(Cl)c(Cl)c2Cl)c(Cl)c1Cl [2,2',3,3',4,4'-Hexachlorobiphenyl]",NOAEL,Rattus norvegicus; [4],0.8 mg/kg-day
[Cl][Sn][Cl] [Stannous chloride],NOAEL,"Rattus norvegicus; subchronic, duration: 90 days, oral, diet, M/F, Wistar, body weight",63 mg/kg-day
"Clc1cc(Cl)c(-c2cc(Cl)c(Cl)cc2Cl)cc1Cl [2,2',4,4',5,5'-Hexachlorobiphenyl]",NOAEL,Rattus norvegicus; [4],1.2 mg/kg-day
"CC1=NCCS1 [Thiazole, 4,5-dihydro-2-methyl-]",NOAEL,"Rattus norvegicus; subchronic, duration: 90 days",1.8 mg/kg-day
same,NOAEL,"Rattus norvegicus; subchronic, duration: 90 days, oral, diet, M/F, no effects",1.8 mg/kg-day
CCOC(C)(C)C [Ethyl t-butyl ether],NOAEL,"Rattus norvegicus; chronic, duration: 6 months, oral, gavage, M/F, Sprague-Dawley, organ weight",100 mg/kg-day
CC(O)c1ccccc1 (stereo not drawn) [alpha-Methylbenzyl alcohol],LOAEL,Rattus norvegicus; [1],93 mg/kg-day
Cc1cccc(C)c1N(Cn1cccn1)C(=O)CCl [Metazachlor],NOAEL,"Rattus norvegicus; chronic, duration: 2 years, organ weight",8.5 mg/kg-day
same,NOAEL,"Rattus norvegicus; developmental, development",50 mg/kg-day
same,NOAEL,"Rattus norvegicus; subchronic, duration: 90 days, oral, organ weight",21 mg/kg-day
CCC[CH2][Sn]([CH2]CCC)([CH2]CCC)[O][Sn]([CH2]CCC)([CH2]CCC)[CH2]CCC [Bis(tributyltin)oxide],NOAEL,"Rattus norvegicus; chronic, duration: 2 years, oral, diet, M/F, Wistar, histopathology: neoplastic",0.025 mg/kg-day
CSSSCc1ccco1 [2-[(Methyltrisulfanyl)methyl]furan],NOAEL,Rattus norvegicus; [2],0.56 mg/kg-day
Cc1occc1S [2-Methyl-3-furanthiol],NOAEL,Rattus norvegicus; [3],5 mg/kg-day
